In patent US11926679B2, “Oligopeptide search method, oligopeptide, modified peptide, and immunoassay method” (ZEON CORPORATION, priority 2016, dated 2024):

How the values were obtained:
[1] = Evaluation of adhesiveness to the container (anti-6-His detection, absorbance at 450 nm); format: binding
Experimental: Polypeptide 1, Polypeptide 2, and a human normal IgG antibody (manufactured by Wako Pure Chemical Industries, Ltd.) were dissolved in a PBS solution and 10% DMSO in PBS (10% DMSO PBS) each in a concentration of 10 μg/ml to give various solutions.
To a 96-well plate obtained by injection molding of a hydride of a norbornene-based ring-opened polymer [Zeonor® 1060R, manufactured by Zeon Corporation] (hereinafter referred to as a “1060R plate”) and a 96-well plate made of polystyrene (product name “Falcon® (Falcon is a registered trademark in Japan, other countries, or both)”, manufactured by Corning Incorporated; hereinafter referred to as a “TCPS plate”), each of the polypeptide solutions prepared above was added in an amount of 50 μL/well (N=3) and the plates were allowed to stand at room temperature (25° C.) for 1 hour.
After allowed to stand, the insides of the wells of the 1060R plate and the TCPS plate were washed three times with T-TBS (0.05 m Tris hydrochloric acid, 0.15 m sodium chloride, 0.05% Tween® 20; pH 7.6). […]
For the wells of each plate, the absorbance at 450 nm was measured using a well plate reader apparatus (manufactured by CORONA ELECTRIC Co., Ltd.).

[2] = test system: CHO (Chinese Hamster Ovary) cells; test: CHO cell shape on polypeptide-coated 1060R plate; format: cell-based; conditions: microscope, 5 hours after the start of culture, serum-free medium, coating 10 μg/ml
Experimental: Each of the solutions which this Polypeptide 3 and Polypeptide 2 obtained in Example 2 were dissolved in PBS in a concentration of 10 μg/ml respectively was filter-sterilized. To an EOG-sterilized 1060R plate, 50 μL per well of each of the resultant solution was added. The plates were allowed to stand at room temperature (25° C.) for 1 hour.
After allowed to stand, each of the 1060R plates incubated with Polypeptide 3 and Polypeptide 2 obtained in Example 2 was washed three times with sterilized PBS to obtain a Polypeptide 3-coated 1060R plate and a Polypeptide 2-coated 1060R plate.
To wells of the two plates thus obtained and a 1060R plate that was not coated with a polypeptide, CHO (Chinese Hamster Ovary) cells suspended in a serum-free medium (serum free medium ESF SFM Serum⋅Free Medium for Hybridoma, CHO & 293 Cells, manufactured by Expression Systems, LLC) were added and maintained the culture in a CO2 incubator at 37° C.

[3] = Phage display peptide library search on norbornene-based polymer culture dish; format: binding; conditions: tertiary phage solutions; washes with PBS, Glycine HCl pH 2, Glycine NaOH pH 10, then PBS containing 10% DMSO
Experimental: As a phage display peptide library, Ph.D.-C7C Phage Display Peptide Library Kit (manufactured by New England Biolabs Japan Inc.) was used.
The phage solution was dissolved in a phosphate buffer (PBS; a mixed solution of 137 mmol/l NaCl, 8.1 mmol/l Na2HPO4, 2.68 mmol/l KCl, and 1.47 mmol/l KH2PO4, pH 7.4) to give a peptide library.
Thereafter, the bottom of the culture dish was washed three times with PBS.
Subsequently, it was washed once with 40 mM Glycine HCl Buffer (pH 2.2) adjusted to pH 2, and further, 40 mM Glycine NaOH (pH 10) adjusted to pH 10 was added dropwise to it.
The dropped solution was collected, and the pH was immediately neutralized with a dilute hydrochloric acid (pH=7.0) to obtain a “phage solution washed with an alkali and collected”.
Subsequently, a PBS containing 10% DMSO was added dropwise to the bottom of the culture dish, and the dropped solution was collected to obtain a “phage solution washed with DMSO and collected.” […]
The gene sequences of the phages contained in the two phage solutions obtained by acquisition of the tertiary phage solutions were read to obtain corresponding amino acid sequences.

[4] = Blocking effect against non-specific adsorption of antibody, 1060R plate; conditions: solution containing no protein, 0.05% or 0.2% in PBS, FIG. 8
Text: (§1) The container on which the synthetic BNP antigen was immobilized was blocked in the same manner as in Example 5, using a phosphate buffered saline containing 10% blocking agent (manufactured by NACALAI TESQUE, INC., product name “Blocking One”) containing a widely used casein (“Blocking One having a final concentration of 10%”), a phosphate buffered saline containing 0.05% Tween® 20 (“Tween® 20 PBS having a final concentration of 0.05%”), and a phosphate buffered saline containing 0.2% Tween® 20 (“Tween® 20 PBS having a final concentration of 0.2%”) as blocking agents, and compared to the condition without the blocking treatment.
(§2) As microwell plates, the 1060R plate (experimental example) and the PS plate (comparative example) were used. […]
(§3) After the resultant was allowed to stand, the solution in the wells was removed, followed by washing three times with a phosphate buffered saline containing 0.05% Tween® 20. […] After adding 0.1 M sulfuric acid as a stop solution, the absorbance at 450 nm was measured with a light absorption plate reader.
(§4) The value for each condition was determined using the relative value to the measured absorbance value of the well that was not subjected to blocking in the 1060R plate.

[5] = Blocking effect against non-specific adsorption of antibody, PS plate; conditions: containing no protein, FIG. 8
Text: as §1, §2, §3, §4

[6] = Adsorption of antigen to multi-well plate, 1060R plate; format: binding; conditions: FIG. 6
Text: (§5) The condition for adsorption of an antigen to a multi-well plate was examined. A comparison of adsorption of an antigen was made by using a 96-well plate obtained by injection molding of a hydride of a norbornene-based ring-opened polymer [Zeonor® 1060R, manufactured by Zeon Corporation] (hereinafter referred to as a “1060R plate”) and a 96-well plate made of polystyrene (product name “SUMILON® (SUMILON is a registered trademark in Japan, other countries, or both) ELISA Plate H”, manufactured by Sumitomo Bakelite Co., Ltd.; hereinafter referred to as a “PS plate”).
(§6) A peptide in which the amino acid sequence of […](SEQ ID NO: 7) that has the property of specifically attaching to a norbornene-based polymer is bound to the N terminal of the amino acid sequence of Cys-Lys-Val-Leu-Arg-Arg-His (SEQ ID NO: 6) of the antibody recognition site of the human BNP (brain natriuretic peptide) (hereinafter referred to as a “synthetic BNP antigen”) was synthesized. […]
(§7) Then, the synthetic BNP antigen immobilized in the plate was allowed to develop a color using a coloring reagent (manufactured by NACALAI TESQUE, INC., product name “ELISA POD Substrate TMB Solution”), and quenched with a dilute sulfuric acid, followed by measuring the absorbance at 450 nm by an absorbance plate reader.

[7] = Adsorption of antigen to multi-well plate, PS plate; format: binding; conditions: FIG. 6
Text: as §5, §6, §7

ACTVDSCLTCGGGGGHHHHHH [Polypeptide 2]
absorbance at 450 nm of the 1060R plate compared with the TCPS plate ([1]; 10 μg/ml polypeptide, 1 hour at room temperature, FIG. 2): higher than that of the TCPS plate
adhesiveness to a norbornene-based polymer ([1]; conclusion from FIG. 2): high adhesiveness
shape of CHO cells on coated 1060R plate [2]: rounded shapes

ACTVDSCLTCGGGGGRGDSPHHHHHH [Polypeptide 3]
shape of CHO cells on coated 1060R plate [2]: shapes in which the cells were stretched

TVDNSLA [Thr-Val-Asp-Asn-Ser-Leu-Ala]
adhesion/elution behaviour of the amino acid sequence on the norbornene-based polymer dish [3]: eluting at a high pH

TVDSCLT [Thr-Val-Asp-Ser-Cys-Leu-Thr]
adhesion/elution behaviour of the amino acid sequence on the norbornene-based polymer dish [3]: continued to adhere even after washed with an alkali and was eluted with an organic solvent

polyoxyethylene sorbitan monolaurate [Tween® 20]
blocking effect (relative absorbance at 450 nm) [4]: a blocking effect was observed
blocking effect (relative absorbance at 450 nm) [5]: a blocking effect was lower as compared to a blocking agent containing a protein

synthetic BNP antigen: peptide in which SEQ ID NO: 7 (norbornene polymer-attaching sequence) is bound to the N terminal of SEQ ID NO: 6, antibody recognition site of human BNP (ACTVDSCLTCGGGGGSSSGLGCKVLRRH)
attachment of antigen to the plate (absorbance at 450 nm) [6]: attached
attachment of antigen to the plate (absorbance at 450 nm) [7]: not attached
